Experimental data taken from article PMC8325676, “The tea plant CsLHT1 and CsLHT6 transporters take up amino acids, as a nitrogen source, from the soil of organic tea plantations” (Horticulture Research, 2021).

Experiments:
CsLHT1 = conditions: 10-500 µM 15N-Glu, 10 min, 30°C; labelled compound
[1] = substrate: N[C@@H](CCC(=O)O)C(=O)O; experiment: cells, lysate or membranes; format: cell-based, Camellia sinensis; conditions: 0.5-20 mM 15N-Glu, 10 min, 30°C, labelled compound

Km (CsLHT1) [µM] | Molecule | Km [1] [µM]
39.9 | N[C@@H](CCC(=O)O)C(=O)O [15N-Glu] | –
– | CsLHT6 (Camellia sinensis) (protein, cloned from root cDNA) MVSNSPPAPKEVPTEEDQWTEKGPPREAKWWYSTFHTVTAMVGAGVLSLPYAMAYLGWGPGTMLLVFSWCITLNTMWQMIQLHECVPGVRFDHYYDLGRHAFGPKLGPWIVLPQQLIVQVGCDIVYMVTGGKCLKKFMEIVCTNCTRIKQSYWICIFGSTHFFLSQLPNFNSVSGVSLAAAIMSLSYSTIAWVGCLSKGRVENVSYAYKKTSGADSMFRVFNALGEITFAYAGHAVVLEIQATVPSTPEMPSKVPMWKGAVWAYFINAICYFPVALIGYWAFGQDVADNVLVALERPSWLIAAANLMVVIHVIGSYQVYAMPVFDLLEKAMVKRLSFPPGIGLRIIVRSAYVAFTLFVGVTFPFFGDLLGFFGGFGFAPTSYFLPSIIWLIIKKPKRFSISWFINWACIYIGVFVMLASTIGGLRNIVIDSSTYEFYS | 2500
